17 compounds from PubChem BioAssay (NCI) can be followed below.

Test in all cases: NCI tumour cell line growth inhibition, 48 h
Test [1] relates to SNB-19 CNS.
Test [2] has as its system MDA-MB-435.
Test [3] deals with HOP-62 NSCLC.
In test [4] the test system is M14 melanoma.
Test [5] deals with MALME-3M melanoma.
The test system of test [6] is HOP-92 NSCLC.
Test [7] concerns RPMI-8226 leukemia.
In test [8] the test system is ACHN renal.
For test [9], the system named is SW-620 colon.
The test system of test [10] is NCI-H23 lung.
Test [11] relates to U251 CNS.
In test [12] the test system is MDA-MB-231 breast.
For test [13], the system named is CCRF-CEM leukemia.
The test system of test [14] is HS 578T breast.
Test [15] deals with RXF 393 renal.
Test [16] has as its system OVCAR-5 ovarian.

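These data come from cells grown in 96-well plates and exposed to compound for 48 hours at five concentrations. Definition used: TGI = concentration required for complete inhibition of growth.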

Consider `OC(CC(CC(O)(C(F)(F)Cl)C(F)(F)Cl)=NNc1ccccc1)(C(F)(F)Cl)C(F)(F)Cl`, for which the TGI in [1] was more than 10 µM; in test [2], more than 10 µM; in [3] it was 7.95 µM; in test [4], more than 10 µM; in test [5], 7.14 µM; in [6], 5.19 µM. In addition, the TGI is more than 10 µM in [7]; 9.12 µM in test [8]; more than 10 µM in [9]; 7.31 µM in test [10]; more than 10 µM in [11]; 6.63 µM in [12]. In addition, the TGI was more than 10 µM in test [13], 5.93 µM in test [14], 6.82 µM in test [15] and more than 10 µM in [16].

For `O[C@@]1(c2cccs2)c2cccc(Cl)c2[C@](O)(c2cccs2)c2cccc(Cl)c21`, the TGI in [1] is 80.3 µM; in test [2], 35 µM; in test [3] it was more than 100 µM; in test [4], 31.5 µM; in [5] it was 37.2 µM; in [6], more than 100 µM. The TGI in test [7] was 66.2 µM; in test [8] it was 39.5 µM; in [9], 44.8 µM; in test [10], 39.8 µM; in test [11], 33.2 µM; in test [12], 71 µM. Moreover, the TGI was more than 100 µM in test [13], 49.2 µM in [14], 38.2 µM in test [15] and 37.6 µM in [16].

Take `CCCCCCCC(=O)OC[n+]1ccc(-c2c(COC(=O)NC(C)C)c(COC(=O)NC(C)C)c3n2CCC3)cc1`: the TGI was more than 100 µM in [1]; more than 100 µM in [2]; more than 100 µM in test [3]; more than 100 µM in test [4]; more than 90.6 µM in [5]; 83.8 µM in test [6]. For the same compound, the TGI in test [7] was 66.2 µM; in [8], 68.9 µM; in test [9] it was 60.8 µM; in test [10], more than 100 µM; in [11], more than 100 µM; in [12], more than 100 µM. The TGI was more than 60.3 µM in test [13], more than 100 µM in [14], 49.9 µM in test [15] and more than 100 µM in test [16].

For the compound `CCN(CC)c1ccc2c(c1)OC(=O)C(c1nnc(-c3ccc([N+](=O)[O-])cc3)o1)C2` (configuration not stated), the TGI in test [1], in test [2], in test [3], in [4], in test [5] and in [6] was more than 100 µM each time. Also, the TGI in test [7], in [8], in [9], in test [10], in [11] and in test [12] was more than 100 µM each time. Further, the TGI in test [13], in test [14], in test [15] and in [16] was more than 100 µM in each case.

With `COC(=O)C1=C(OC(=O)/C(=C/c2ccc(Cl)cc2Cl)c2ccc(Cl)cc2Cl)C(C(=O)OC)[C@@]2(O)[C@@H](C(=O)OC)[C@H](C)C[C@@H]1[C@@H]2C(=O)OC` (some centres not stated), the TGI in [1], in [2], in test [3], in test [4], in [5] and in test [6] was more than 100 µM throughout. In addition, the TGI in [7], in [8], in test [9], in test [10], in test [11] and in test [12] was more than 100 µM throughout. For the same compound, the TGI in [13], in [14], in test [15] and in test [16] was more than 100 µM throughout.

Consider `CC(=O)NC1=C(C)C(=O)c2c(nc3n2CCC3OC(=O)c2ccccc2)C1=N` (configuration not stated), for which the TGI in [1] was found to be 11.7 µM; in test [2], 0.319 µM; in test [3] it was 7.28 µM; in test [4], 2.76 µM; in test [5] it was 2.45 µM; in test [6], 5.47 µM. In addition, the TGI turned out to be 4.34 µM in test [7]; 3.13 µM in test [8]; 5.17 µM in test [9]; 3.83 µM in test [10]; 9.45 µM in test [11]; 6.45 µM in test [12]. Moreover, the TGI in [13] is 9.71 µM; in [14] it was 5.4 µM; in [15], 2.9 µM; in [16] it was 7.36 µM.

`Cc1cccc2[nH]c3cc(O)cc(O)c3c(=O)c12`: the TGI in test [1], in test [2], in [3], in [4], in test [5] and in test [6] was more than 10 µM in each case. The TGI in test [7], in test [8], in test [9], in [10], in test [11] and in test [12] was more than 10 µM each time. Also, the TGI in test [13], in test [14], in test [15] and in test [16] was more than 10 µM throughout.

Regarding `N#Cc1nc(C2CC2)oc1N`, the TGI in test [1], in test [2], in [3], in test [4], in [5] and in test [6] was more than 100 µM each time. Moreover, the TGI in test [7], in [8], in test [9], in [10], in [11] and in test [12] was more than 100 µM each time. The TGI in [13], in test [14], in [15] and in test [16] was more than 100 µM throughout.

Regarding `CO[C@H]1O[C@@H]2CO[C@@H](c3ccccc3)O[C@H]2[C@@H]2CC=CCC[C@]12O`, the TGI in test [1] was more than 100 µM; in [2] it was more than 100 µM; in test [3], more than 100 µM; in [4] it was more than 100 µM; in [5] it was 29.3 µM; in test [6] it was more than 100 µM. Moreover, the TGI in test [7] is 90.1 µM; in [8], more than 100 µM; in [9] it was more than 100 µM; in [10] it was more than 100 µM; in test [11], more than 100 µM; in test [12], more than 100 µM. Moreover, the TGI in test [13] is more than 100 µM; in [14], 18.2 µM; in [15] it was more than 100 µM; in test [16], more than 100 µM.

Regarding `CC1CC(C)[C@H](O)C([C@H](O)CC2CC(=O)N(C)C(=O)C2)C1` (some centres not stated), the TGI in test [1], in test [2], in [3], in test [4], in test [5] and in [6] was more than 100 µM throughout. Besides, the TGI in test [7], in test [8], in [9], in [10], in [11] and in test [12] was more than 100 µM throughout. The TGI in [13], in test [14], in test [15] and in test [16] was more than 100 µM each time.

As for `C/C(=N/NC(=O)c1ccncc1)c1ccc(NC(=O)C(=O)Nn2c(=S)[nH]c3ccccc3c2=O)cc1`, the TGI in test [1], in [2], in test [3], in [4], in [5] and in test [6] was more than 100 µM each time. For the same compound, the TGI in test [7], in [8], in test [9], in [10], in test [11] and in test [12] was more than 100 µM throughout. The TGI in test [13], in test [14], in test [15] and in test [16] was more than 100 µM throughout.

As to `Oc1ccc(Cl)cc1-c1[nH]c(=S)nc(-c2ccccc2)c1Cl`, the TGI was more than 100 µM in [1]; more than 100 µM in [2]; more than 84.9 µM in [3]; more than 100 µM in [4]; more than 100 µM in [5]; more than 100 µM in test [6]. Moreover, the TGI in test [7] was more than 100 µM; in [8], more than 100 µM; in [9], more than 100 µM; in test [10], more than 100 µM; in test [11] it was 97.9 µM; in test [12], 97.2 µM. For the same compound, the TGI in test [13], in test [14], in [15] and in test [16] was more than 100 µM in each case.

For the compound `COc1ccc(/C(CCl)=C(\Nc2ccccc2)c2ccc(OC)c(OC)c2)cc1OC`, the TGI in test [1], in [2], in [3], in [4], in [5] and in test [6] was more than 100 µM each time. The TGI in test [7], in [8], in [9], in test [10], in test [11] and in test [12] was more than 100 µM each time. For the same compound, the TGI in test [13], in [14], in [15] and in [16] was more than 100 µM throughout.

Consider `C[n+]1noc(/N=N\[O-])c1-c1cc(-c2c(/N=N\[O-])on[n+]2C)cc(-c2c(/N=N/[O-])on[n+]2C)c1`, for which the TGI in test [1], in test [2], in test [3], in test [4], in test [5] and in test [6] was more than 100 µM in each case. In addition, the TGI in test [7], in test [8], in test [9], in test [10], in test [11] and in [12] was more than 100 µM in each case. Moreover, the TGI in test [13], in test [14], in test [15] and in test [16] was more than 100 µM throughout.

For the compound `COc1cc(O)c2c(=O)c(OC)c(-c3ccc4c(c3)OCO4)oc2c1`, the TGI was more than 84.1 µM in test [1]; more than 100 µM in [2]; more than 63.1 µM in test [3]; more than 100 µM in test [4]; more than 100 µM in [5]; more than 57.7 µM in test [6]. The TGI in test [7] is more than 100 µM; in test [8], more than 100 µM; in test [9], more than 100 µM; in test [10], more than 100 µM; in [11] it was 30.2 µM; in test [12], more than 77.4 µM. Further, the TGI in [13], in test [14], in [15] and in test [16] was more than 100 µM each time.

With `CC(C)(C)OC(=O)NC1CC=CCC1NC(=O)OC(C)(C)C` (configuration not stated), the TGI in [1], in [2], in test [3], in test [4], in test [5] and in test [6] was more than 100 µM each time. For the same compound, the TGI in [7], in test [8], in test [9], in test [10], in test [11] and in [12] was more than 100 µM throughout. Besides, the TGI in test [13], in test [14], in test [15] and in test [16] was more than 100 µM each time.

`O=C1NCN(c2ccccc2)C12CCN(CCc1ccc3[nH]c(=S)[nH]c3c1)CC2`: the TGI in test [1] was more than 100 µM; in test [2], 35.6 µM; in test [3], more than 100 µM; in test [4] it was 58.3 µM; in [5] it was 30.8 µM; in test [6] it was 93.7 µM. In addition, the TGI in test [7] is 59.3 µM; in test [8], more than 100 µM; in [9] it was 25.8 µM; in test [10], more than 100 µM; in test [11], 98.4 µM; in [12], 41.6 µM. Also, the TGI was 22 µM in [13], more than 100 µM in [14], 36.5 µM in test [15] and more than 100 µM in test [16].
